Data on 26 compounds can be found in patent US9101616B2, “Aryl substituted carboxamide derivatives as calcium or sodium channel blockers” (RaQualia Pharma Inc., priority 2009, dated 2015).

This test concerns the target T1, human T-type channel alpha-1H (CaV 3.2) (Homo sapiens, UniProt O95180).
T1 construct: expressed in transfected cells; host or cells: HEK 293
Description: Ca2+ Influx Assay (cell-based fluorescent, FDSS). The note with it: HEK 293 cells expressing human CaV 3.2. How it is done:
Inhibition of T-type calcium channel activity was determined by cell-based flu-orescent Ca^2+ influx assay, in which potassium ionophore was added to decrease resting membrane potential and extra-cellular high-K^+ stimulation was used to modulate the membrane potential of the cell. The changes in fluorescent signal were monitored by the cell imaging technology by Hamamatsu Photonics's Functional Drug Screening System (FDSS).
HEK 293 cells expressing the human T-type channel alpha-1H (CaV 3.2) were maintained in DMEM supplemented with 10% heat-inactivated FBS, 100 units/ml Penicillin, 100 microg/ml Streptomycin, 150 microg/ml Zeocin, 300 microg/ml Geneticin. The cells were grown in a 5% CO2 humidified incubator at 37° C.
• 1. Cells were harvested and seeded in a poly-D-lysine coated black-sided clear bottom 384-well plate at density of 10,000 cells/well at 24 hours prior to assay. • 2. Incubate at 37° C. in 5% CO2. Day Two: • 1. Wash each well with assay buffer (see below) and leave 20 RI using plate washer, ELx-405 Select CW (BIO-TEK). • 2. Add 20 μL of assay buffer containing 6 μM Fluo-4-AM (Molecular Probes) and 0.005% Pluronic F-127 to each well. • 3. Incubate the plate at 37° C. for 1 hour. • 4. Wash each well assay buffer (see below) and leave 20 μl using plate washer, ELx-405 Select CW (BIO-TEK). • 5. Add 10 μl of compound solution into each well by FDSS6000 and leave the plate for 4.5 min, and then add 10 μl of potassium ionophore solution. • 6. Add 20 μl of high-K^+ depolarizing solution (see below) and monitor the change of fluorescent signal.
The IC50 values for compounds of the present invention were determined from 7-point dose-response studies. Curves were generated using the average of duplicate wells for each data point. Finally, the IC50 values are calculated with the best-fit dose curve determined by XLfit.

Molecules are shown by their SMILES.

T1 sequence (O95180 whole entry): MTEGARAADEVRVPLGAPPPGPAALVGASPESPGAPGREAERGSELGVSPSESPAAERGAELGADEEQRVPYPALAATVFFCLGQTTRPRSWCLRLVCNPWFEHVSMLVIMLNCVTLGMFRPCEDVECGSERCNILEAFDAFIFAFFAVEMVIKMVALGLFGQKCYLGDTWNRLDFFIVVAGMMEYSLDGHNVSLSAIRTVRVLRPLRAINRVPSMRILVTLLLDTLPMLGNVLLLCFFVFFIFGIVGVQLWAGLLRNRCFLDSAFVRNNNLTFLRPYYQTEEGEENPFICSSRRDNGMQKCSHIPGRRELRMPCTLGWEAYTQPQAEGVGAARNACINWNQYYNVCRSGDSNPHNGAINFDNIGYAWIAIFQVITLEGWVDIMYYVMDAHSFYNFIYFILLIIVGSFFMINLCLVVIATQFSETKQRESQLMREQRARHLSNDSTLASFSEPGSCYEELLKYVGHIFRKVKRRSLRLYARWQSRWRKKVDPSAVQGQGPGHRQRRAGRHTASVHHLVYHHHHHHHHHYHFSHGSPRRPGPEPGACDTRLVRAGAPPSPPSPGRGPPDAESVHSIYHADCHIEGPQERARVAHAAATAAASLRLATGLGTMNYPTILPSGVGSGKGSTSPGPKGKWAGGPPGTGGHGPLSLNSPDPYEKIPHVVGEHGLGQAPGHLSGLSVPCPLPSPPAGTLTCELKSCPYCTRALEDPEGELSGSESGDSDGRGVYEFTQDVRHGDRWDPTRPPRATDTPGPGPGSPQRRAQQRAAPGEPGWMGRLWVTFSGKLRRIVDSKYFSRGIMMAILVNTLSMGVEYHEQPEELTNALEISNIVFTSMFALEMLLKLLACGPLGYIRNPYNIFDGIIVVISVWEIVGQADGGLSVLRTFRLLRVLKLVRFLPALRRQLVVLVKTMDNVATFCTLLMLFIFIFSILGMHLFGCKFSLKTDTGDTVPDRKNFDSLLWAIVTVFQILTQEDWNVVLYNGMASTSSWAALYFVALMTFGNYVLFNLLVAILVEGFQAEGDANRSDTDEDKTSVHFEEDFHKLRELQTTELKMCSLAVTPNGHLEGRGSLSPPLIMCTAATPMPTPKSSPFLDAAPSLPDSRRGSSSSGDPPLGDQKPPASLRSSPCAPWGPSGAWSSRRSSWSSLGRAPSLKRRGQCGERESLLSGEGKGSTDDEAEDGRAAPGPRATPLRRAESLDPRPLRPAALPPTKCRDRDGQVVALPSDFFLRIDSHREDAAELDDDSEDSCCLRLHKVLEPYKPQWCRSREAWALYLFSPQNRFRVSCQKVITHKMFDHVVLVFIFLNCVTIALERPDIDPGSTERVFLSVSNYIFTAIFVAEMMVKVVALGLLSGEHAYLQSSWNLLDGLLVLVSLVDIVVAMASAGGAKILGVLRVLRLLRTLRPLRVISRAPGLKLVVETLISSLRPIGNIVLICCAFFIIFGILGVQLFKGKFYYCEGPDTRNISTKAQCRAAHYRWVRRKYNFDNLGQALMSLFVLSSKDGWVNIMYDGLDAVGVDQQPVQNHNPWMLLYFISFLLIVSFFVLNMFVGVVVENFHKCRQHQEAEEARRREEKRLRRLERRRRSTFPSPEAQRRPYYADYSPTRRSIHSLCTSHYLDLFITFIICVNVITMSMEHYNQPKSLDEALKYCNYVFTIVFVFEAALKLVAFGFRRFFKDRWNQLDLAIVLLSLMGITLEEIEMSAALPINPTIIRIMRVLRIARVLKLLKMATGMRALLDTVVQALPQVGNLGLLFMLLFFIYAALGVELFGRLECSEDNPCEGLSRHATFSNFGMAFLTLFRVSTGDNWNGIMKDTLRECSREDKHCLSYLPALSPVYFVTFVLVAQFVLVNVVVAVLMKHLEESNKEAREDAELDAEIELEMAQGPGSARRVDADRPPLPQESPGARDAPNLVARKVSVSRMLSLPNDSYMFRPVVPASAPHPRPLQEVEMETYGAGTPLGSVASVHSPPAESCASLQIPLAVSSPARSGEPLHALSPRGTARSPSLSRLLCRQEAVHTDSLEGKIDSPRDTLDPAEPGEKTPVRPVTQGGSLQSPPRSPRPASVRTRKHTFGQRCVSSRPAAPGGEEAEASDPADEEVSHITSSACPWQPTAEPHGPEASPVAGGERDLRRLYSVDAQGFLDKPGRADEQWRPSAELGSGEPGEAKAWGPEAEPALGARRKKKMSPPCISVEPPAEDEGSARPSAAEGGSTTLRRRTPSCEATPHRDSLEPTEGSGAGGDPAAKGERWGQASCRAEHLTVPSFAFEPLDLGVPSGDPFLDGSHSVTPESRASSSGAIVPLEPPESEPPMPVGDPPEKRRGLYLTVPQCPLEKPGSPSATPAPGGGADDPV

Regarding `C[C@@H](NC(=O)C1CC1c1cnc2ccccc2c1)c1ccc(OCC(F)(F)F)nc1` (stereo in doubt) [Example 211, trans-2-(quinolin-3-yl)-N-((R)-1-(6-(2,2,2-trifluoroethoxy)pyridin-3-yl)ethyl)cyclopropanecarboxamide], the concentration for half-maximal inhibition (IC50) is not above 300 nM. As to `C[C@@H](NC(=O)C1CC1c1ccc2ncccc2c1)c1ccc(OCC(F)(F)F)nc1` (stereo in doubt) [Example 207, trans-2-(quinolin-6-yl)-N-((R)-1-(6-(2,2,2-trifluoroethoxy)pyridin-3-yl)ethyl)cyclopropanecarboxamide], the IC50 is not above 300 nM. Then `C[C@@H](NC(=O)C1CC1c1cn(C)c2ccccc12)c1ccc(OCC(F)(F)F)cn1` (stereo in doubt) [Example 106, trans-2-(1-methyl-1H-indol-3-yl)-N-((R)-1-(5-(2,2,2-trifluoroethoxy)pyridin-2-yl)ethyl)cyclopropanecarboxamide], with not above 300 nM. Then `C[C@@H](NC(=O)C1CC1c1c[nH]c2c(F)cccc12)c1ccc(OCC(F)(F)F)cn1` (stereo in doubt) [Example 108, trans-2-(7-fluoro-1H-indol-3-yl)-N-((R)-1-(5-(2,2,2-trifluoroethoxy)pyridin-2-yl)ethyl)cyclopropanecarboxamide], with not above 300 nM; and `C[C@@H](NC(=O)[C@H]1C[C@@H]1c1c[nH]c2ccccc12)c1ccc(OCC(F)(F)F)cn1` (relative stereo) [Example 133, (1S*,2S*)-2-(1H-indol-3-yl)-N-((R)-1-(5-(2,2,2-trifluoroethoxy)pyridin-2-yl)ethyl)cyclopropanecarboxamide], with not above 300 nM; and `C[C@@H](NC(=O)C1CC1c1ccc2ccn(CC3(C)COC3)c2c1)c1cnc(OCC(F)(F)F)cn1` (stereo in doubt) [Example 190, trans-2-(1-((3-methyloxetan-3-yl)methyl)-1H-indol-6-yl)-N-((R)-1-(5-(2,2,2-trifluoro-ethoxy)pyrazin-2-yl)ethyl)cyclopropanecarboxamide], with not above 300 nM. Compound `C[C@@H](NC(=O)[C@H]1C[C@@H]1c1ccccc1)c1ccc(OCC(F)(F)F)cn1` (relative stereo) [Example 280, (1S*,2S*)-2-phenyl-N-((R)-1-(5-(2,2,2-trifluoroethoxy)pyridin-2-yl)ethyl)cyclopropanecarboxamide] registered an IC50 not above 300 nM. `C[C@@H](NC(=O)C1CC1c1c[nH]c2cc(F)ccc12)c1ccc(OCC(F)(F)F)cn1` (stereo in doubt) [Example 168, trans-2-(6-fluoro-1H-indol-3-yl)-N-((R)-1-(5-(2,2,2-trifluoroethoxy)pyridin-2-yl)ethyl)cyclopropanecarboxamide] came in with an IC50 not above 300 nM. Then `COc1ccc([C@H]2C[C@@H]2C(=O)N[C@H](C)c2ccc(OCC(F)(F)F)cn2)c(F)c1` (relative stereo) [Example 248, (1S*,2S*)-2-(2-fluoro-4-methoxyphenyl)-N-((R)-1-(5-(2,2,2-trifluoroethoxy)pyridin-2-yl)ethyl)cyclopropanecarboxamide], with not above 300 nM.

With `COc1ccc([C@H]2C[C@@H]2C(=O)N[C@H](C)c2cnc(OCC(F)(F)F)cn2)c(F)c1` (relative stereo) [Example 270, (1S*,2S*)-2-(2-fluoro-4-methoxyphenyl)-N-((R)-1-(5-(2,2,2-trifluoroethoxy)pyrazin-2-yl)ethyl)cyclopropanecarboxamide], the IC50 was not above 300 nM. The figure for `C[C@@H](NC(=O)C1CC1c1ccc2cccnc2c1)c1ccc(OCC(F)(F)F)nc1` (stereo in doubt) [Example 206, trans-2-(quinolin-7-yl)-N-((R)-1-(6-(2,2,2-trifluoroethoxy)pyridin-3-yl)ethyl)cyclopropanecarboxamide] is not above 300 nM; for `C[C@@H](NC(=O)[C@H]1C[C@@H]1c1c(F)cc(F)cc1F)c1cnc(OCC(F)(F)F)cn1` (relative stereo) [Example 271, (1S*,2S*)-N-((R)-1-(5-(2,2,2-trifluoroethoxy)pyrazin-2-yl)ethyl)-2-(2,4,6-trifluorophenyl) cyclopropanecarboxamide] it is not above 300 nM. Regarding `C[C@@H](NC(=O)C1CC1c1ccc2ccn(C)c2c1)c1ccc(OCC(F)(F)F)nc1` (stereo in doubt) [Example 208, trans-2-(1-methyl-1H-indol-6-yl)-N-((R)-1-(6-(2,2,2-trifluoroethoxy)pyridin-3-yl)ethyl)cyclopropanecarboxamide], the half-maximal inhibitory concentration (IC50) is not above 300 nM. In the case of `C[C@@H](NC(=O)[C@H]1C[C@@H]1c1ccc2cnn(C)c2c1)c1ccc(OCC(F)(F)F)cn1` (relative stereo) [Example 227, (1S*,2S*)-2-(1-methyl-1H-indazol-6-yl)-N-((R)-1-(5-(2,2,2-trifluoroethoxy)pyridin-2-yl)ethyl)cyclopropanecarboxamide], the IC50 was not above 300 nM. Turning to `C[C@@H](NC(=O)[C@H]1C[C@@H]1c1c(F)cc(F)cc1F)c1ccc(OCC(F)(F)F)cn1` (relative stereo) [Example 250, (1S*,2S*)-N-((R)-1-(5-(2,2,2-trifluoroethoxy)pyridin-2-yl)ethyl)-2-(2,4,6-trifluorophenyl) cyclopropanecarboxamide], the IC50 was not above 300 nM. The compound `C[C@@H](NC(=O)[C@H]1C[C@@H]1c1ccc(OCc2ccccc2)cc1)c1ccc(OCC(F)(F)F)cn1` (relative stereo) [Example 237, (1S*,2S*)-2-(4-(benzyloxy)phenyl)-N-((R)-1-(5-(2,2,2-trifluoroethoxy)pyridin-2-yl)ethyl)cyclopropanecarboxamide] registered a concentration for half-maximal inhibition (IC50) not above 300 nM. `C[C@@H](NC(=O)C1CC1c1ccc2ccccc2n1)c1ccc(OCC(F)(F)F)nc1` (stereo in doubt) [Example 205, trans-2-(quinolin-2-yl)-N-((R)-1-(6-(2,2,2-trifluoroethoxy)pyridin-3-yl)ethyl)cyclopropanecarboxamide] registered a 50% inhibitory concentration (IC50) not above 300 nM. Then `C[C@@H](NC(=O)[C@H]1C[C@@H]1c1cc2ccccc2[nH]1)c1cnc(OCC(F)(F)F)cn1` (relative stereo) [Example 225, (1S*,2S*)-2-(1H-indol-2-yl)-N-((R)-1-(5-(2,2,2-trifluoroethoxy)pyrazin-2-yl)ethyl)cyclopropanecarboxamide], with not above 300 nM; and `C[C@@H](NC(=O)C1CC1c1cc2cc(F)ccc2[nH]1)c1ccc(OCC2CC2)cn1` (stereo in doubt) [Example 181, trans-N-((R)-1-(5-(cyclopropylmethoxy)pyridin-2-yl)ethyl)-2-(5-fluoro-1H-indol-2-yl)cyclopropanecarboxamide], with not above 300 nM; and `C[C@@H](NC(=O)C1CC1c1cc(F)cc(F)c1)c1ccc(OCC2CC2)cn1` (stereo partly drawn) [Example 193, trans-N-((R)-1-(5-(cyclopropylmethoxy)pyridin-2-yl)ethyl)-2-(3,5-difluorophenyl) cyclopropanecarboxamide], with not above 300 nM.

As to `C[C@@H](NC(=O)[C@H]1C[C@@H]1COc1ccccc1)c1cnc(OCC(F)(F)F)cn1` (relative stereo) [Example 318, (1S*,2S*)-2-(phenoxymethyl)-N-((R)-1-(5-(2,2,2-trifluoroethoxy)pyrazin-2-yl)ethyl)cyclopropanecarboxamide], the IC50 was not above 300 nM. The figure for `C[C@@H](NC(=O)C1CC1c1nc2ccccc2n1C)c1ccc(OCC(F)(F)F)cn1` (stereo in doubt) [Example 243, trans-2-(1-methyl-1H-benzo[d]imidazol-2-yl)-N-((R)-1-(5-(2,2,2-trifluoroethoxy)pyridin-2-yl)ethyl)cyclopropanecarboxamide] is not above 300 nM. `C[C@@H](NC(=O)[C@H]1C[C@@H]1COc1cccc(F)c1)c1ccc(OCC(F)(F)F)cn1` (relative stereo) [Example 294, (1S*,2S*)-2-((3-fluorophenoxy)methyl)-N-((R)-1-(5-(2,2,2-trifluoroethoxy)pyridin-2-yl)ethyl)cyclopropanecarboxamide] showed an IC50 not above 300 nM.

Take `C[C@@H](NC(=O)[C@H]1C[C@@H]1c1cccc2cc[nH]c12)c1ccc(OCC2CC2)cn1` (relative stereo) [Example 316, (1S*,2S*)-N-((R)-1-(5-(cyclopropylmethoxy)pyridin-2-yl)ethyl)-2-(1H-indol-7-yl)cyclopropanecarboxamide]: the half-inhibitory concentration (IC50) was not above 300 nM.

The compound `C[C@@H](NC(=O)[C@H]1C[C@@H]1c1ccccc1)c1ccc(OCC(F)(F)F)nc1` (relative stereo) [Example 284, (1S*,2S*)-2-phenyl-N-((R)-1-(6-(2,2,2-trifluoroethoxy)pyridin-3-yl)ethyl)cyclopropanecarboxamide] registered an IC50 not above 300 nM. Then `C[C@@H](NC(=O)[C@H]1C[C@@H]1COc1ccccc1)c1ccc(OCC(F)(F)F)nc1` (relative stereo) [Example 320, (1S*,2S*)-2-(phenoxymethyl)-N-((R)-1-(6-(2,2,2-trifluoroethoxy)pyridin-3-yl)ethyl)cyclopropanecarboxamide], with not above 300 nM.
